Key:
[1] = system: broiler chickens; assay: Growth performance trial with broiler chickens, day 8 to day 22 (Rhodobacter sphaeroides biomass); type: in vivo, chickens (ROSS PM3); conditions: dose 10 mg/kg
Description: A growth performance trial with broiler chickens was performed from day 8 to day 22. The chickens were housed in wire-floored battery cages. From day-old until day 8, the chickens were fed a pre-experimental diet based on wheat, maize and soybean meal. In the experimental period (day 8 to 22) the chickens received diets based on wheat, rye and soybean meal (composition see Table 1). Groups of birds were weighed on days 8, 15, and 22. The feed consumption for the intermediate periods was determined and body weight gain and feed conversion ratio were calculated.

[2] = system: broiler chickens; assay: Second broiler chicken growth trial with crystalline PHB, day 8 to day 29; type: in vivo; conditions: Day 8-29; dose 10 mg/kg
[3] = system: Artemia nauplii infected with Vibrio campbellii LMG21363; assay: In vivo challenge test of Artemia nauplii with Vibrio campbellii LMG21363 (Example 8); set-up: species or system Artemia franciscana; conditions: 2 days challenge, mean ± standard error
Description: All challenge tests were performed with high quality hatching cysts of Artemia franciscana (EG® Type, batch 6940, INVE Aquaculture, Baasrode, Belgium). Two hundred mg of cysts were hydrated in 18 ml of tap water during 1 h. Sterile cysts and nauplii were obtained via decapsulation, adapted from the protocol described by Marques et al. (2004). […] The decapsulation was stopped after 2 min by adding 14 ml of Na2S2O3 (10 gl^−1). During the reaction, 0.22 μm filtered aeration was provided. The decapsulated cysts were washed with autoclaved artificial seawater containing 35 g l^−1 of Instant Ocean synthetic sea salt (Aquarium Systems Inc., Sarrebourg, France). The cysts were resuspended in a 50 ml tube containing 30 ml of filtered and autoclaved artificial seawater and hatched for 24 h on a rotor (4 min^−1) at 28° C. with constant illumination (approximately 2000 lux). Vibrio campbellii LMG21363 was stored in 40% glycerol at −80° C. Ten μl of this stored culture was inoculated into fresh Marine Broth (Difco Laboratories, Detroit, USA) and incubated overnight at 28° C. under constant agitation (100 min-1). The grown cultures of Vibrio campbellii were washed in autoclaved artificial seawater and the suspensions were diluted to an OD600 of approximately 0.1. 20 μl of the diluted suspensions was inoculated into the Artemia culture water. Aeromonas hydrophila LVS3 was used as feed for the nauplii (Defoirdt et al., 2005). The strain was grown overnight on Marine Agar (Difco Laboratories, Detroit, USA), suspended in sterile artificial seawater, diluted to an OD600 of approximately 1 and autoclaved. 300 μl of the autoclaved suspension was added to the Artemia culture water. […] Challenge tests were performed as described by Defoirdt et al. (2005), with slight modifications. Briefly, after hatching, groups of 20 nauplii were transferred to new sterile 50 ml tubes that contained 20 ml of filtered and autoclaved artificial seawater. The tubes were inoculated with Vibrio campbellii LMG21363 (except for the control, where no pathogen was added) and fed with LVS3. For the experiment with fatty acids, the fatty acids were dissolved in artificial seawater at different concentrations (25, 50 and 100 mM). The pH of the solutions was brought back to 7 and the solutions were filtersterilised over a 0.22 μm filter (Millipore, Bedford, USA). After feeding and the addition of the appropriate chemical and/or bacteria, the falcon tubes were put back on the rotor and kept at 28° C. […] All manipulations were done under a laminar flow hood in order to maintain sterility of the cysts and nauplii. Each treatment was done in triplicate.

[4] = system: Vibrio campbellii LMG21363; assay: Growth of Vibrio campbellii LMG21363 in LB medium (OD600); type: cell-based; conditions: pH 6
Description: Vibrio campbellii LMG21363 was grown overnight in LB medium on a shaker at 28° C. Subsequently, the suspension was diluted 1:50 (v/v) in LB medium supplemented with butyrate (Sigma-Aldrich, Bornem, Belgium) or β-hydroxybutyrate (Sigma-Aldrich, Bornem, Belgium). For each compound, three solutions were made with the following concentrations: 25, 50 and 100 mM. LB medium without supplements was used as a control. The pH of all solutions was set at 6, 7 or 8. After inoculation, the suspensions were incubated at 28° C. in a static mode. Growth was monitored by measuring the optical density (OD600) during 20 h. Each treatment was performed in triplicate.

[5] = 25 mM in culture water at start
[6] = 100 mM in culture water at start

Q: `COC[C@H]1O[C@@H](OC2OC[C@@H]3O[C@]4(O[C@H]3[C@H]2OC(=O)C(C)C)O[C@H](C)[C@@](O)(C(C)=O)[C@@H]2OCO[C@H]24)[C@@H](OC)[C@@H](O)[C@@H]1O[C@@H]1O[C@H](C)[C@H](OC)[C@H](O[C@H]2C[C@@]3(C)OC4(C[C@@H](O)[C@H](O[C@H]5C[C@@H](O)[C@H](OC(=O)c6c(C)c(Cl)c(O)c(Cl)c6OC)[C@@H](C)O5)[C@@H](C)O4)O[C@@H]3[C@@H](C)O2)[C@H]1O` (stereo partly drawn) [Avilamycin] was tested. Which Feed conversion ([1]; Day 8-15) did it give?
A: 1.652 ± 0.090 g feed/g gain

Q: What about the Feed intake ([1]; Day 8-15) of the same compound?
A: 552 ± 43 g/bird

Q: What about the Weight gain ([1]; Day 8-15) of the same compound?
A: 334 ± 20 g/bird

Q: What about the Feed conversion ([1]; Day 8-22) of the same compound?
A: 1.778 ± 0.072 g feed/g gain

Q: And the “Feed conversion relative to control (control 100.0)” value ([1]; Day 8-22)?
A: 94.9

Q: And the Feed intake ([1]; Day 8-22)?
A: 1441 ± 100 g/bird

Q: What about the “Feed intake relative to control (control 100.0)” value ([1]; Day 8-22) of the same compound?
A: 101.1

Q: And the Weight gain ([1]; Day 8-22)?
A: 810 ± 39 g/bird

Q: And the “Weight gain relative to control (control 100.0)” value ([1]; Day 8-22)?
A: 106.7

Q: What about the Feed conversion ([1]; Day 15-22) of the same compound?
A: 1.867 ± 0.078 g feed/g gain

Q: What about the Feed intake ([1]; Day 15-22) of the same compound?
A: 889 ± 67 g/bird

Q: And the Weight gain ([1]; Day 15-22)?
A: 476 ± 24 g/bird

Q: And the FCR [2]?
A: 1.756 ± 0.079 g feed/g gain

Q: And the “FCR, % of control” value [2]?
A: 94.5%

Q: What about the Feed intake [2] of the same compound?
A: 2402 ± 196 g/bird

Q: And the “Feed intake, % of control” value [2]?
A: 101.0%

Q: What about the Weight gain [2] of the same compound?
A: 1367 ± 85 g/bird

Q: And the “Weight gain, % of control” value [2]?
A: 106.6%

Q: `CCCC(=O)O` [butyrate] was tested. Which Survival [3, 5] did it give?
A: 48 ± 2 %

Q: What about the Survival [3, 6] of the same compound?
A: 50 ± 5 %

Q: With `CC(O)CC(=O)O` (stereo not drawn) [β-hydroxybutyrate, 3-hydroxybutyrate] as the compound, how does the “Growth of Vibrio campbellii” value ([4]; 100 mM) read?
A: strongly inhibited

Q: And the “Growth of Vibrio campbellii” value ([4]; lower concentrations)?
A: not completely inhibited

Q: What about the Survival [3, 5] of the same compound?
A: 38 ± 15%

Q: And the Survival [3, 6]?
A: 40 ± 3 %

From patent US8603518B2, “Hydroxybutyrate and poly-hydroxybutyrate as components of animal feed or feed additives” (Universiteit Gent, priority 2006, dated 2013)
